Measurements taken from patent publication US20250270206A1, “COMPOSITIONS AND METHODS FOR INHIBITION OF RAS” (TheRas, Inc., priority 2022, published 2025).

How the values were obtained:
[1] = biological target: T1, GDP-loaded KRAS4b (amino acids 1-169) G12C/C118S (Homo sapiens, UniProt P01116, C118S/G12C); assay: MALDI-TOF MS covalent Cys12 modification, GDP-loaded KRAS G12C; format: binding; conditions: 15 minutes reaction time, 1 μM protein, 1:2.5 protein to compound ratio
T1 construct: KRAS4b (amino acids 1-169) G12C/C118S protein; made in house
Procedure: (§1) MALDI-TOF MS analysis was performed using 1 μM protein target, and 1:2.5 protein to compound ratio was used.
(§2) Reaction: 1 μM of GppNHp, GTP, or GDP-loaded KRAS4b (amino acids 1-169) G12C/C118S protein (produced in-house by Protein Expression Laboratory, FNLCR/Leidos Biomed) in 20 mM 4-(2-hydroxyethyl)-1-piperazineethanesulfonic acid (HEPES) buffer containing 150 mM NaCl, 1 mM MgCl2, pH 7.3 was prepared freshly before assay. Ten-μL aliquots of protein were dispensed onto low volume 384-well plate, then 375 nL DMSO, and 25 nL of tested compounds from 5 mM DMSO stocks were added to appropriate wells using ECHO 555 acoustic liquid handler (Labcyte Inc.). For each reaction/assay, three blanks were prepared by mixing 10 μL of protein solution with 400 nL DMSO. The contents of the wells were carefully mixed by aspiration, and then each plate was sealed with an adhesive cover, centrifuged at 2000 g for 1 minute, and kept in the dark at room temperature until 5 min, 15 min, 30 min, 2 h, or 6 h collections.
(§3) Target pretreatment: Before each assay MALDI target (Bruker MPT 384 ground steel BC) was pre-treated by pipetting on each spot 0.75 μL of saturated sinapinic acid in acetonitrile (ACN).
(§4) Sample preparation: At collection time point, 2 μL of reaction mixtures were pipetted out into 20 μL MALDI matrix solution (saturated solution of sinapinic acid in 1:1 ACN:water solution containing 0.75% trifluoroacetic acid (TFA)) deposited on 384 well polypropylene plate. Resulting solution was mixed by aspiration, centrifuged at 2000 g for 1 minute, then 1 μL aliquots were dispensed on pre-treated MALDI target using Beckman Coulter Biomek FX^P 96/384-Span-8 Laboratory Automation Workstation. Finally, the MALDI target was dried under mild vacuum to produce spots with fine crystalline structure.
(§5) Measurements: MALDI-TOF measurements were performed on a Bruker Daltonics rapifleX Tissuetyper TOF-TOF mass spectrometer using linear mode and mass range from 18.6 to 21.6 kDa. Detector gain was set to 3.3× (483 V), sample rate to 5 GS/s, real time smoothing to medium (175 MHz), laser smart beam pattern was set to: “MS Thin Layer M5”, and the laser frequency was 10000 Hz. Spectra were automatically collected using custom AutoXecute method. Laser power was auto adjusted using fuzzy control. The peak selection range was set to be between 19000 and 21500 Da. Peak evaluation uses half width parameter set to be smaller than 40 Da for processed spectrograms (centroid peak detection: smoothed by SavitzkyGolay algorithm using 7 m/z width and 2 cycles; baseline was subtracted using median algorithm with flatness 1 and median level 0.01). Fuzzy control used Proteins/Oligonucleotides protocol with minimum half width 1/10 times above threshold. Up to 40000 satisfactory shots were collected in 10000 shot steps. Dynamic termination was implemented to finish data collection when peak signal/noise ratio reached a value of 50.
(§6) Spectra processing: Spectra were smoothed by SavitzkyGolay algorithm using 7 m/z width and three cycles. Centroid peak detection algorithm was used with signal to noise threshold set to 6, relative intensity threshold 4%, peak width 10 m/z and median baseline subtraction using flatness of 1 and median level of 0.01. Peak intensity and area under the peak were evaluated and recorded for all peaks between 19,300 Da and 21,550 Da.
(§7) Calculation of percent modification: Percent modification was calculated as a ratio of peak height for protein modified by compound to sum of peak height of remaining protein plus peak height for protein modified by compound. If multiple modifications were observed each was calculated as a ratio of peak height for given modification versus sum of peak heights for all observed protein species. Data reported in Table 5 are from the 15 minutes reaction time point.

[2] = biological target: T2, GppNHp-loaded KRAS4b (amino acids 1-169) G12C/C118S (Homo sapiens, UniProt P01116, C118S/G12C); assay: MALDI-TOF MS covalent Cys12 modification, GppNHp-loaded KRAS G12C; format: binding; conditions: 15 minutes reaction time, 1 μM protein, 1:2.5 protein to compound ratio
T2 construct: KRAS4b (amino acids 1-169) G12C/C118S protein; made in house
Procedure: as §1, §2, §3, §4, §5, §6, §7

pERK in NCI-H358 cells = assay: Cell-based pERK HTRF assay; conditions: Homo sapiens, 0.5 h, 30 min incubation
Procedure: pERK HTRF assays (Perkin Elmer) were used to determine the effectiveness of compounds of the present disclosure in disrupting KRAS G12C protein/effector signaling in cells.
On Day 1, cells (NCI-H358) were seeded into 96-well plates at 4×10^4 cells/well in complete growth media (RPMI, 10% FBS).
On Day 2, cells were treated with compounds at 0.25% DMSO. The source plate was created with compounds diluted in media at 5-fold the final assay concentration. The compounds were run in a 9-point concentration curve starting at 75 μM, with a 3-fold dilution between concentrations. 20 μL was transferred onto the cell plates (final volume in wells was 100 μL). Plates were harvested after 30 min incubation by aspirating media and adding kit-supplied 1× supplemented lysis buffer to all wells (75 μL per well). Plates were then placed on a plate shaker and incubated at 850 rpm for an additional 30 min.
Antibody mixture solution was prepared by diluting aliquoted d2 and Eu Cryptate antibodies 1:20 in kit supplied detection buffer, then mixed the diluted antibodies solutions (1:1 v:v). 4 μL of this solution was then added to a 384-well detection plate (Perkin Elmer; 6008230).
Samples were homogenized by pipetting up and down and then transferred (16 μL of cell lysates) from the 96-well cell culture plate to two wells of the HTRF 384-well detection plate containing the antibody solution. Plates were centrifuged (524 g for 1 min) and allowed to incubate between 4 and 24 h at room temperature. Maximum signal is reached after 4 h incubation time and remains stable over a period of 24 hours. Therefore, readings can be made between 4 and 24 h of incubation. Plates were centrifuged again (524 g for 1 min) and analyzed on the EnVision plate reader using the following settings: Excitation 320 nm, Bandwidth 75 nm; Emission 615 nm, Bandwidth 85 nm; Gain 100%; Flashes 100; Lag 60 μs.

[3] = biological target: T3, Avi-KRAS G12C (1-169) GppNHp/RAF1 RBD-3×FLAG (52-151) (Homo sapiens, UniProt P01116, G12C); assay: KRAS G12C-effector (RAF1 RBD) protein:protein interaction HTRF disruption assay; format: biochemical; conditions: PPI HTRF
T3 construct: Avi-KRAS G12C (1-169) GppNHp
Procedure: A protein:protein interaction (PPI) Homogeneous Time Resolved Fluorescence (HTRF) assay was used to determine the effectiveness of compounds of the present disclosure in disrupting KRAS G12C protein and effector (RAF1) binding.
The HTRF assay used the following reagents and proteins: 50 nM Avi-KRAS G12C (1-169) GppNHp/RAF1 RBD-3×FLAG (52-151); 75 nM Avi-RAF1 RBD-3×FLAG; Assay Buffer: 50 mM Tris pH 7.5, 100 mM NaCl, 5 mM MgCl2, 0.1% BSA, 0.01% Tween 20, 10% DMSO; Bead Buffer: 50 mM Tris pH 7.5, 0.01% Tween 20; Assay volume: 20 μL (384 well plate-low volume format); and Compound titration: 30-0.02 μM, 3× dilution series.
The HTRF assay employed the following protocol:
Compounds were dispensed in assay plate (384-well, Grenier Bione #784075) using Echo (model 555) with dose response settings: 200 nL final volume, titration from 100 μM as a 10-point dilution series. KRAS proteins were prepared in assay buffer, and dispensed on plates, 5 μL per well, then incubated for 1 h at room temperature, with 700 rpm shaking. RAF1 RBD were prepared in assay buffer, dispensed onto plates, 5 μL per well, and then incubated for 1 h at room temperature, with 700 rpm shaking. Reagent mix was then prepared and dispensed on plates, 10 μL per well, and then incubated for 1 h at room temperature, with 700 rpm shaking.
Plates were analyzed on an Envision plate reader using the following setting: Excitation 320 nm, Bandwidth 75 nm, Emission 615 nm, Bandwidth 85 nm; Gain 100%; Flashes 100; Lag 60 μs. Data was reported as percentage of activity, with DMSO as 100%. Data was plotted and analyzed using Prism 8.

[4] = biological target: T4, GTP-loaded KRAS4b (amino acids 1-169) G12C/C118S (Homo sapiens, UniProt P01116, C118S/G12C); assay: MALDI-TOF MS covalent Cys12 modification, GTP-loaded KRAS G12C; format: binding; conditions: 15 minutes reaction time, 1 μM protein, 1:2.5 protein to compound ratio
T4 construct: KRAS4b (amino acids 1-169) G12C/C118S protein; made in house
Procedure: as §1, §2, §3, §4, §5, §6, §7

Row | GDP-KRAS G12C percent of modification [1] | GppNHp-KRAS G12C percent of modification [2] | IC50 (pERK in NCI-H358 cells) [nM] | IC50 [3] [nM] | GTP-KRAS G12C percent of modification [4] | Compound
1 | A (percent of modification ≥70%) | A (percent of modification ≥70%) | ≤ 100 | ≤ 500 | A (percent of modification ≥70%) | C=CC(=O)N1CC[C@@H](N(C)c2nc(OC[C@@]34CCCN3C[C@H](F)C4)nc3c(F)c(-c4ccc(F)c5sc(N)c(C#N)c45)ncc23)C1 [Compound 6, 2-amino-7-fluoro-4-[8-fluoro-2-[[(2R,8S)-2-fluoro-1,2,3,5,6,7-hexahydropyrrolizin-8-yl]methoxy]-4-[methyl-[(3R)-1-prop-2-enoylpyrrolidin-3-yl]amino]pyrido[4,3-d]pyrimidin-7-yl]benzothiophene-3-carbonitrile]
2 | A (percent of modification ≥70%) | B (50% percent of modification <70%) | ≤ 100 | ≤ 500 | D (percent of modification <10%) | C=CC(=O)N1C[C@H](C)N(c2nc(OC[C@@]34CCCN3C[C@H](F)C4)nc3c(F)c(-c4ccc(F)c5sc(N)c(C#N)c45)ncc23)C[C@H]1C [Compound 7, 2-amino-4-[4-[(2S,5R)-2,5-dimethyl-4-prop-2-enoyl-piperazin-1-yl]-8-fluoro-2-[[(2R,8S)-2-fluoro-1,2,3,5,6,7-hexahydropyrrolizin-8-yl]methoxy]pyrido[4,3-d]pyrimidin-7-yl]-7-fluoro-benzothiophene-3-carbonitrile]
3 | C (10%≤percent of modification <50%) | C (10%≤percent of modification <50%) | ≤ 100 | ≤ 500 | C (10%≤percent of modification <50%) | C=CC(=O)N1CC[C@@H](N(C)c2nc(OC[C@@]34CCCN3C[C@H](F)C4)nc3cc(-c4ccc(F)c5sc(N)c(C#N)c45)c(C(F)(F)F)nc23)C1 [Compound 8]
4 | A (percent of modification ≥70%) | C (10%≤percent of modification <50%) | > 1000 | ≤ 500 | C (10%≤percent of modification <50%) | C=CC(=O)N1CC[C@@H](N(C)c2nc(OC[C@@]34CCCN3C[C@H](F)C4)nc3nc(-c4ccc(F)c5sc(N)c(C#N)c45)ccc23)C1 [Compound 9, 4-(4-(((R)-1-acryloylpyrrolidin-3-yl)(methyl)amino)-2-(((2R,7aS)-2-fluorotetrahydro-1H-pyrrolizin-7a(5H)-yl)methoxy)pyrido[2,3-d]pyrimidin-7-yl)-2-amino-7-fluorobenzo[b]thiophene-3-carbonitrile]
5 | A (percent of modification ≥70%) | A (percent of modification ≥70%) | ≤ 100 | ≤ 500 | C (10%≤percent of modification <50%) | C=CC(=O)N1C[C@H](C)N(c2nc(OC[C@@]34CCCN3C[C@H](F)C4)nc3cc(-c4ccc(F)c5sc(N)c(C#N)c45)c(C(F)(F)F)nc23)C[C@H]1C [Compound 10, 4-(4-((2S,5R)-4-acryloyl-2,5-dimethylpiperazin-1-yl)-2-(((2R,7aS)-2-fluorotetrahydro-1H-pyrrolizin-7a(5H)-yl)methoxy)-6-(trifluoromethyl)pyrido[3,2-d]pyrimidin-7-yl)-2-amino-7-fluorobenzo[b]thiophene-3-carbonitrile]
6 | A (percent of modification ≥70%) | A (percent of modification ≥70%) | ≤ 100 | ≤ 500 | A (percent of modification ≥70%) | C=CC(=O)N1C[C@@H](F)[C@@H](N(C)c2nc(OC[C@@]34CCCN3C[C@H](F)C4)nc3c(F)c(-c4ccc(F)c5sc(N)c(C#N)c45)ncc23)C1 [Compound 11]
7 | A (percent of modification ≥70%) | A (percent of modification ≥70%) | ≤ 100 | ≤ 500 | A (percent of modification ≥70%) | C=CC(=O)N1C[C@H](F)[C@@H](N(C)c2nc(OC[C@@]34CCCN3C[C@H](F)C4)nc3c(F)c(-c4ccc(F)c5sc(N)c(C#N)c45)ncc23)C1 [Compound 12]
8 | C (10%≤percent of modification <50%) | C (10%≤percent of modification <50%) | ≤ 100 | ≤ 500 | C (10%≤percent of modification <50%) | C=CC(=O)N1C[C@H](N(C)c2nc(OC[C@@]34CCCN3C[C@H](F)C4)nc3cc(-c4ccc(F)c5sc(N)c(C#N)c45)c(C(F)(F)F)nc23)C[C@H]1C [Compound 13]
